From US11161830B2, “4-pyridone compound or salt thereof, and pharmaceutical composition and formulation including same” (priority 2017, dated 2021)
pIC50: −log10 of the molar value. Like-named read-outs stand apart in the source and are kept apart here.

Experiments:
Format in all cases: cell-based, hepatitis B virus
[1] = system: HBV; assay: Test Example 1-2: anti-HBV assay in HepG2.2.15 cells (test solution 100 μL/well); details: Hepatitis B virus, culture supernatant
Procedure: (§1) Using HepG2.2.15 cells (Proc. Natl. Acad. Sci. USA, 84, 1005-1009, 1987) which have an HBV genome introduced into a hepatoblastoma cell line, HepG2, and persistently produce a virus, the anti-HBV activity of the representative compounds was evaluated in the following procedure.
(§2) The following was used as a medium:
(§3) DMEM/F-12, GlutaMAX (manufactured by Invitrogen)+5 μg/mL insulin (manufactured by Wako)+1% penicillin/streptomycin (manufactured by Sigma)+10 mmol/L HEPES (manufactured by Sigma)+50 μmol/L hydrocortisone (manufactured by Sigma)+10% FBS
(§4) A mixture of a test compound with dimethyl sulfoxide (DMSO) was further added to the medium to obtain a final concentration of DMSO of 0.25% (v/v), and thus, test solutions containing the test compound at various concentrations were prepared. In addition, a test solution obtained by adding DMSO alone to the medium to obtain a final concentration of 0.25% (v/v) was prepared as a control without addition of a drug.
(§5) (1) The HepG2.2.15 cells were suspended in the medium to prepare a. HepG2.2.15 cell suspension at 4×10^5 cells/mL. The suspension was seeded in a 96-well microtiter plate (100 μL/well) and the plate was incubated in a 5% CO2 incubator at 37° C. for 2 days.
(§6) (2) The culture supernatant was removed and the cells were washed twice with PBS (−) (100 μL/well).
(§7) (3) The test solution (200 μL/well) was added to the plate of (2) and the plate was incubated in a 5% CO2 incubator at 37° C. for 4 days.
(§8) (4) The culture supernatant was removed, the test solution (200 μL/well) was added again to the plate, and the plate was incubated in a 5% CO2 incubator at 37° C. for 3 days.
(§9) (5) The culture supernatant was collected and treated with a mixture of Buffer AL (manufactured by QIAGEN) and Proteinase K (manufactured by Invitrogen). The amount of DNA of HBV (HBV-DNA) in the obtained solution was absolutely quantified by a real-time PCR method. In addition, HBsAg (hepatitis B surface antigen) in the culture supernatant was absolutely quantified by chemiluminescent enzyme immunoassay using Lumipulse (registered trademark) HBsAg-HQ (manufactured by Fujirebio Inc.). The relative viral load (%) of a well with the compound added to a well without the compound added was calculated. An IC50 of the compound was calculated using a FORECAST function (linear regression method) of Microsoft Office Excel 2007 by plotting the logarithm of the concentration against the relative viral load as a real number.
(§10) The IC50 of HBV-DNA was defined as a concentration (or a logarithm dilution of the culture supernatant) of the compound, in which the amount of HBV-DNA is reduced by 50% as compared a control without the compound added.
(§11) In addition, the IC50 of HBsAg was defined as a concentration (or a logarithm dilution of the culture supernatant) of the compound, in which the amount of HBsAg is reduced by 50% as compared a control without the compound added.
The test was performed by the same method as in Test Example 1-1 except that the amounts of the test solutions of (3) and (4) of Test Example 1-1 was changed to 100 μL/well.

[2] = system: HBV; assay: Test Example 1-1: anti-HBV assay in HepG2.2.15 cells (test solution 200 μL/well); details: Hepatitis B virus, culture supernatant
Procedure: as §1, §2, §3, §4, §5, §6, §7, §8, §9, §10, §11

[3] = system: HBV (genotype AeUS); assay: Test Example 2-1: anti-HBV assay in PXB-cells (fresh human hepatocytes); details: Hepatitis B virus, Hepatocyte, PXB-cells infected with HBV genotype AeUS, culture supernatant on day 32 post infection
Procedure: Using fresh human hepatocytes (PXB-cells, manufactured by PhenixBio Co., Ltd.) collected from a PXB mouse (a chimeric mouse with human hepatocytes), the anti-HBV activity of the representative compounds was evaluated in the following procedure.
as §2
DMEM (manufactured by Sigma)+0.25 μg/mL insulin (manufactured by Wako)+1% penicillin/streptomycin. (manufactured by Sigma)+20 mmol/L HEPES (manufactured by Sigma)+15 μg/mL L-proline (manufactured by Sigma)+50 nmol/L dexamethasone (manufactured by Sigma)+5 ng/mL EGF (manufactured by Peprotech)+0.1 mmol/L ascorbic acid 2-phosphate (manufactured by Wako)+10% FBS+2% DMSO
Each of the test compounds) was further added to the medium to prepare a test solution containing each of the test compounds at various concentrations.
(1) PXB-cells seeded at a seeding density of 2.1×10^5 cells/cm^2 in a 96-well microliter plate were incubated in a 5% CO2 incubator at 37° C. until a day on which the cells were infected.
(2) HBV (genotype AeUS) derived from a PXB mouse serum was suspended in the medium containing 4% PEG-8000, and added to the plate of (1) at about 10 copies/cell such that the PXB cells were infected (100 μL/well), and the plate was incubated in a 5% CO2 incubator at 37° C. for 1 day.
(3) The culture supernatant on day 1 post infection was removed and the cells were washed three times with DMEM containing 10% FBS and 1% penicillin/streptomycin. Then, the medium was added to the plate (100 μL/well) and the plate was incubated in a 5% CO2 incubator at 37° C. for 1 day.
(4) The culture supernatant on day 2 post infection was removed and the cells were washed three times with DMEM containing 10% FBS and 1% penicillin/streptomycin. Then, the medium was added to the plate (100 μL/well) and the plate was incubated in a 5% CO2 incubator at 37° C. for 5 days.
(5) The culture supernatant on day 7 post infection was removed, the medium was added to the plate (100 μL/well), and the plate was incubated in a 5% CO2 incubator at 37° C. for 5 days.
(6) The culture supernatant on day 12 post infection was removed, the medium was added to the plate (100 μL/well), and the plate was incubated in a 5% CO2 incubator at 37° C. for 5 days.
(§12) (7) The culture supernatant on day 17 post infection was removed, the test solution was added to the plate (100 μL/well), and the plate was incubated in a 5% CO2 incubator at 37° C. for 5 days. As a control without the compound added, the medium was added to the plate (100 μL/well) and the plate was incubated in a 5% CO2 incubator at 37° C. for 5 days.
as §12, with “(8)” for “(7)”, “22” for “17”
as §12, with “(9)” for “(7)”, “27” for “17”
(10) The culture supernatant on day 32 post infection was collected.
(11) The collected culture supernatant on day 32 post infection was purified with a QIAamp (registered trademark) DNA Blood Mini Kit (manufactured by QIAGEN). The amount of HBV-DNA in the obtained solution was absolutely quantified by a real-time PCR method. In addition, the amount of HBsAg in the culture supernatant was absolutely quantified by chemiluminescent enzyme immunoassay using Lumipulse (registered trademark) HBsAg-HQ (manufactured by Fujirebio Inc.). A relative viral load (%) with respect to a control without the compound added was each calculated. […]

Compound: CO[C@@H]1CCN(c2ccc(-c3cc(=O)c(C(=O)O)cn3-c3ccc4nc(N5CC(OC(C)C)C5)sc4c3)cc2F)C1 [Example 23-7, (R)-6-(3-fluoro-4-(3-methoxypyrrolidin-1-yl)phenyl)-1-(2-(3-isopropoxyazetidin-1-yl)benzo[d]thiazol-6-yl)-4-oxo-1,4-dihydropyridine-3-carboxylic acid]
- pIC50 ([1]; read-out: IC50 HBV-DNA): 9.19
- pIC50 ([1]; read-out: IC50 HBsAg): 8.96

Compound: CCOC1CN(c2nc3ccc(-n4cc(C(=O)O)c(=O)cc4-c4ccc(N5CC[C@@H](OC)C5)c(F)c4)cc3s2)C1 [Example 23-6, (R)-1-(2-(3-ethoxyazetidin-1-yl)benzo[d]thiazol-6-yl)-6-(3-fluoro-4-(3-methoxypyrrolidin-1-yl)phenyl)-4-oxo-1,4-dihydropyridine-3-carboxylic acid]
- pIC50 ([1]; read-out: IC50 HBV-DNA): 9.35
- pIC50 ([1]; read-out: IC50 HBsAg): 8.96

Compound: CO[C@@H]1CCN(c2ccc(-c3cc(=O)c(C(=O)O)cn3-c3ccc4nc(N5CC(OC(F)F)C5)sc4c3)cc2F)C1 [Example 23-2, (R)-1-(2-(3-(difluoromethoxy)azetidin-1-yl)benzo[d]thiazol-6-yl)-6-(3-fluoro-4-(3-methoxypyrrolidin-1-yl)phenyl)-4-oxo-1,4-dihydropyridine-3-carboxylic acid]
- pIC50 ([1]; read-out: IC50 HBV-DNA): 9.02
- pIC50 ([1]; read-out: IC50 HBsAg): 8.55

Compound: COCCO[C@H]1CCN(c2ccc(-c3cc(=O)c(C(=O)O)cn3-c3ccc4nc(N5CCC[C@@H]5COC)sc4c3)cc2)C1 [Example 22-2, 6-(4-((S)-3-(2-methoxyethoxy)pyrrolidin-1-yl)phenyl)-1-(2-((R)-2-(methoxymethyl)pyrrolidin-1-yl)benzo[d]thiazol-6-yl)-4-oxo-1,4-dihydropyridine-3-carboxylic acid]
- pIC50 ([1]; read-out: IC50 HBV-DNA): 8.00
- pIC50 ([1]; read-out: IC50 HBsAg): 7.66

Compound: CO[C@@H]1CCN(c2ccc(-c3cc(=O)c(C(=O)O)cn3-c3ccc4nc(N5CC(C)(OC)C5)sc4c3)cc2F)C1 [Example 23-8, (R)-6-(3-fluoro-4-(3-methoxypyrrolidin-1-yl)phenyl)-1-(2-(3-methoxy-3-methylazetidin-1-yl)benzo[d]thiazol-6-yl)-4-oxo-1,4-dihydropyridine-3-carboxylic acid]
- pIC50 ([1]; read-out: IC50 HBV-DNA): 9.05
- pIC50 ([1]; read-out: IC50 HBsAg): 8.85

Compound: COCCO[C@@H]1CCN(c2ccc(-c3cc(=O)c(C(=O)O)cn3-c3ccc4nc(N5CC[C@H](OC)C5)sc4c3)cc2)C1 [Example 21, 6-(4-((R)-3-(2-Methoxyethoxy)pyrrolidin-1-yl)phenyl)-1-(2-((S)-3-methoxypyrrolidin-1-yl)benzo[d]thiazol-6-yl)-4-oxo-1,4-dihydropyridine-3-carboxylic acid]
- pIC50 ([1]; read-out: IC50 HBV-DNA): 8.08
- pIC50 ([1]; read-out: IC50 HBsAg): 7.77

Compound: Cc1nc2ccc(-n3cc(C(=O)O)c(=O)cc3-c3ccc(N4CCCC4)c(C#N)c3)cc2s1 [Example 16, 6-(3-Cyano-4-(pyrrolidin-1-yl)phenyl)-1-(2-methylbenzo[d]thiazol-6-yl)-4-oxo-1,4-dihydropyridine-3-carboxylic acid]
- pIC50 ([2]; read-out: IC50 HBV-DNA): 7.74
- pIC50 ([2]; read-out: IC50 HBsAg): 7.82
- pIC50 ([3]; read-out: IC50 HBV-DNA): 6.33
- pIC50 ([3]; read-out: IC50 HBsAg): 6.72

Compound: O=C(O)c1cn(-c2ccc3nc(N4CCCC4)sc3c2)c(-c2ccc(N3CCCC3)cc2)cc1=O [Example 3-3, 4-oxo-1-(2-(pyrrolidin-1-yl)benzo[d]thiazol-6-yl)-6-(4-(pyrrolidin-1-yl)phenyl)-1,4-dihydropyridine-3-carboxylic acid]
- pIC50 ([2]; read-out: IC50 HBV-DNA): 8.70
- pIC50 ([2]; read-out: IC50 HBsAg): 8.30
- pIC50 ([3]; read-out: IC50 HBV-DNA): 7.28
- pIC50 ([3]; read-out: IC50 HBsAg): 7.11

Compound: Cc1nc2ccc(-n3cc(C(=O)O)c(=O)cc3-c3ccc(N4CCCC4)cc3)cc2s1 [Example 3-2, 1-(2-methylbenzo[d]thiazol-6-yl)-4-oxo-6-(4-(pyrrolidin-1-yl)phenyl)-1,4-dihydropyridine-3-carboxylic acid]
- pIC50 ([2]; read-out: IC50 HBV-DNA): 8.05
- pIC50 ([2]; read-out: IC50 HBsAg): 8.51
- pIC50 ([3]; read-out: IC50 HBV-DNA): 6.33
- pIC50 ([3]; read-out: IC50 HBsAg): 6.82

Compound: CO[C@@H]1CCN(c2ccc(-c3cc(=O)c(C(=O)O)cn3-c3ccc4nc(N5CCOCC5)sc4c3)cc2Cl)C1 [Example 11, (R)-6-(3-Chloro-4-(3-methoxypyrrolidin-1-yl)phenyl)-1-(2-morpholinobenzo[d]thiazol-6-yl)-4-oxo-,4-dihydropyridine-3-carboxylic acid]
- pIC50 ([2]; read-out: IC50 HBV-DNA): 7.89
- pIC50 ([2]; read-out: IC50 HBsAg): 8.31
- pIC50 ([3]; read-out: IC50 HBV-DNA): 7.55
- pIC50 ([3]; read-out: IC50 HBsAg): 7.09

Compound: Cc1nc2ccc(-n3cc(C(=O)O)c(=O)cc3-c3ccc(N4CCCC4)c(Br)c3)cc2s1 [Example 5-1, 6-(3-bromo-4-(pyrrolidin-1-yl)phenyl)-1-(2-methylbenzo[d]thiazol-6-yl)-4-oxo-1,4-dihydropyridine-3-carboxylic acid]
- pIC50 ([2]; read-out: IC50 HBV-DNA): 8.43
- pIC50 ([2]; read-out: IC50 HBsAg): 8.19
- pIC50 ([3]; read-out: IC50 HBV-DNA): 6.70
- pIC50 ([3]; read-out: IC50 HBsAg): 6.82

Compound: O=C(O)c1cn(-c2ccc3nc(NCc4ncccn4)sc3c2)c(-c2ccc(N3CCCC3)cc2)cc1=O [Example 3-13, 4-oxo-1-(2-((pyrimidin-2-ylmethyl)amino)benzo[d]thiazol-6-yl)-6-(4-(pyrrolidin-1-yl)phenyl)-1,4-dihydropyridine-3-carboxylic acid]
- pIC50 ([2]; read-out: IC50 HBV-DNA): 8.41
- pIC50 ([2]; read-out: IC50 HBsAg): 8.29
- pIC50 ([3]; read-out: IC50 HBV-DNA): > 8.10
- pIC50 ([3]; read-out: IC50 HBsAg): 7.41
